Entries after “also recorded” stand apart in the source; their conditions may differ.

Data set [1] relates to fli1:EGFP zebrafish embryos. As to the kind of experiment: fli1:EGFP zebrafish embryo angiogenesis assay (intersegmental vessel outgrowth and number). The format is in vivo. The note with it: for Anti-angiogenic activity (loss of ISVs or inhibition of ISV outgrowth): fli1:EGFP embryos, 24 h incubation, result in words; for minimal effective concentration: Danio rerio, 24 h, 24 hpf embryos exposed 24 h, screened 1-200 μg/mL, where no activity was seen the concentration shown is the lowest screened; for Lowest effective anti-angiogenic concentration, fli1:EGFP assay (molar): inhibition of vessel outgrowth and number, 24 h exposure. Here is the method: To determine if our novel thalidomide analogs (Figure 1) had any effect on in vivo angiogenesis, we used fli1:EGFP embryos which express green fluorescent protein (GFP) on endothelial cells throughout development. Embryos were allowed to develop for 24 hours, then exposed to either vehicle or a compound of interest at the concentration range of 1 to 200 μg/mL. During this time the vasculature is rapidly expanding and developing new, naive intersegmental vessels (ISVs). The embryos were imaged after 24 hours of incubation with the drug (Figure 2A). […] We also observed that the potency of each compound varied.
Figure 2 The effect of novel thalidomide analogs on vessel length fli1:EGFP zebrafish were incubated with vehicle or compounds for 24 hours, at which point vessel outgrowth and number were measured. A. Images of zebrafish exposed to the vehicle or test compounds. […] Treatment with C4 (1.5 μg/mL), C18 (50 μg/mL), C81 (50 μg/mL), C82 (5 μg/mL), C83 (20 μg/mL) and C84 (50 μg/mL) show reduction in vessel out growth (white arrow) and in some cases loss of vessel (white asterisks). B. Stalk length & C. stalk number are reduced. Compounds are shown at the lowest concentration producing an effect. The data represent the mean + the standard error of the mean.
Zebrafish embryos were treated with analogs as previously described. Briefly, fli1:EGFP embryos were collected and embryos were allowed to develop for 24 hours. Embryos were dechorionated manually and exposed to test compounds or vehicle control (0.1% DMSO) for a further 24 hours. Embryos were anesthetized with 0.05% MS222 (Tricaine) (Sigma Aldrich) and live visualization of blood vessels was carried out.
(§1) A broad series of novel thalidomide-based compounds were chemically synthesized (WL, NHG and WDF, NIH), dissolved in DMSO, stored in stock concentrations between 10-100 mg/mL, and used at a final working DMSO concentration of 0.1%. The chemical structures of lead compounds of interest were confirmed by chemical characterization (purity >99.5%). Compounds were screened across a range of concentrations from 1-200 μg/mL to determine the lowest effective concentration.

Data set [2] concerns Tg(MPO::EGFP)^114 zebrafish. As to the kind of experiment: Tg(MPO::EGFP)^114 zebrafish tail fin clip assay of neutrophil migration to the wound site. The format is in vivo. The note with it: for minimal effective concentration: Danio rerio, Neutrophil, fin clipped at 72 hpf, imaged at 24 h, screened 1-200 μg/mL, where no activity was seen the concentration shown is the lowest screened; for Effect on neutrophil migration to the wound site (anti-inflammatory activity): fin clipped 72 hpf embryos, result in words.
Description: To assess the immunomodulatory effects of the thalidomide analogs across the concentration range used in the previous assay, the transgenic zebrafish line Tg(MPO::EGFP)^114 was used. These embryos express GFP tagged myeloperoxidase, marking neutrophils during the inflammatory response, for example following injury. […] This allowed us to subsequently assess the anti-inflammatory activity of each compound by immersing embryos in the test drug or vehicle. The embryos were examined for migration of neutrophils to the wound site. In comparison to control embryos (Figure 3A) compounds with anti-inflammatory properties had reduction of at least 50% of neutrophils recruited to the wound site (Figure 3). […] We also screened the previously identified six anti-angiogenic compounds of interest in the Tg(MPO::EGFP)^114 line.
Figure 3 The effect of thalidomide analogs on the inflammatory response to wound healing A. Zebrafish (72 hpf) embryos transgenic for a fluorescently tagged neutrophil marker Tg(MPO::EGFP)^114 were fin clipped to induce an inflammatory response and exposed to vehicle or a test compound. Broken line indicates the tail fin with cut and area of the wound site. […] The data represent the mean + the standard error of the mean.
Tg(MPO::EGFP)^114 embryos were tail fin clipped as previously detailed and incubated with test compounds or vehicle control at 72 hpf. Fish were imaged at 24 hours and the number of migratory neutrophils present at the wound site were counted. Compounds inducing an at least 50% reduction of neutrophils to the wound site were considered to have anti-inflammatory properties in this system. All larvae were assessed for viability and morphological integrity. A minimum of 10 embryos were used per concentration per drug. Error bars represent standard error of the mean.
as §1

Data set [3] deals with WT Zebrafish. As to the kind of experiment: WT zebrafish embryo developmental defect (teratogenicity) screen. The format is in vivo. The note with it: for Eye development / eye diameter in zebrafish embryos / Pectoral fin development / fin length in zebrafish embryos: Figure 4, result in words; for Lowest effective concentration, WT Zebrafish assay: screened 1-200 μg/mL, where no activity was seen the concentration shown is the lowest screened.

The test system of data set [4] is chicken embryos. As to the kind of experiment: In ovo chicken embryo teratogenicity assay. The format is in vivo, white leghorn chicken. The note with it: for Damage observed: HH stage 17-18 chicken embryos, 100 μg/mL; for Lowest effective concentration, Chicken assay: HH stage 17-18 embryos, where no activity was seen the concentration shown is the lowest screened; for Teratogenicity in these assays: chicken and zebrafish embryo assays together, result in words. How it is done:
Compounds of interest were screened in chicken and/or zebrafish embryos (Figure 4), to determine if these compounds are teratogenic. The chicken embryo is well established as a model to determine the action of compounds upon development.
Fertilized white leghorn chicken embryos were incubated at 38°C and staged according to the Hamburger and Hamilton (HH) stages of development. Embryos were tested at HH stage 17-18 (day 2.5). Following membrane removal test compounds or vehicle control solutions were applied over the embryo. The eggs were sealed and the development of the embryos was monitored up to HH stage 30 (E9). A minimum of 3 embryos were used per concentration, per drug.

Setting [5] is: applied at HH stage 17-18, result in words.

On to `O=C1c2c(F)c(F)c(F)c(F)c2C(=O)N1c1ccc(F)cc1F` [CPS49, reference compound], for which the “Anti-angiogenic activity (loss of ISVs or inhibition of ISV outgrowth)” value in data set [1] is “reduction in vessel outgrowth (white arrow), loss of vascular connectivity and a decrease in the number of forming blood vessels”.
As for `O=C1c2ccccc2C(=S)N1C1CCC(=S)NC1=S` (stereo not shown) [Compound C4], in data set [1], the minimal effective concentration was 1.5 to 100 µg/mL; the “Anti-angiogenic activity (loss of ISVs or inhibition of ISV outgrowth)” value is “anti-angiogenic activity”; the “Lowest effective anti-angiogenic concentration, fli1:EGFP assay (molar)” value stood at 4.9 µM. The minimal effective concentration in data set [2] was determined as 10 µg/mL. In data set [3], the “Eye development / eye diameter in zebrafish embryos” value was “microopthalmia; also recorded: reductions in eye diameter”; the “Pectoral fin development / fin length in zebrafish embryos” value (“Pectoral fin development / fin length” below) was “malformation in fin development”; the “Lowest effective concentration, WT Zebrafish assay” value is 10 µg/mL. In addition, in data set [4], the Damage observed entry was “Necrotic YSM, hemorrhaging” and the “Lowest effective concentration, Chicken assay” value was determined as 100 µg/mL. The “Defects in chicken embryo development (text and figure legend)” value (shortened to “Defects in chicken embryo development”) in data set [4] (setting [5]) is “hemorrhaging; also recorded: abnormal blood vessels and necrotic-like regions in the surrounding yolk sac membrane”.
Turning to `O=C1NC(=S)CCC1N1C(=O)c2cccc([N+](=O)[O-])c2C1=O` (stereo not shown) [Compound C7], in data set [1], the minimal effective concentration worked out at 10 µg/mL and the “Anti-angiogenic activity (loss of ISVs or inhibition of ISV outgrowth)” value was “without anti-angiogenic activities”. In data set [2], the minimal effective concentration was determined as 10 µg/mL and the “Effect on neutrophil migration to the wound site (anti-inflammatory activity)” value (“Effect on neutrophil migration” for short) is “reduced neutrophil migration”. Besides, the “Lowest effective concentration, WT Zebrafish assay” value in data set [3] stood at 10 µg/mL. For the same compound, in data set [4], the “Lowest effective concentration, Chicken assay” value was determined as 100 µg/mL and the “Teratogenicity in these assays” value is “non-teratogenic”. Moreover, the “Defects in chicken embryo development” value in data set [4] (setting [5]) is “no effect”.
As for `CC(=O)Oc1ccc2c(c1)C(=O)N(C1CCC(=O)NC1=O)C2=O` (stereo not shown) [Compound C18], in data set [1], the “Anti-angiogenic activity (loss of ISVs or inhibition of ISV outgrowth)” value is reported as “anti-angiogenic activity”. Besides, in data set [2], the minimal effective concentration is 50 µg/mL and the “Effect on neutrophil migration” value is reported as “significantly reduce neutrophil migration”. Moreover, in data set [3], the “Eye development / eye diameter in zebrafish embryos” value was “reductions in eye diameter”; the “Pectoral fin development / fin length” value is recorded as “reductions”; the “Lowest effective concentration, WT Zebrafish assay” value amounted to 50 µg/mL. Also, in data set [4], the Damage observed result is “Necrotic YSM, stunted growth” and the “Lowest effective concentration, Chicken assay” value was determined as 100 µg/mL. The “Defects in chicken embryo development” value in data set [4] (setting [5]) was “reduced body size compared to control embryos; also recorded: abnormal blood vessels and necrotic-like regions in the surrounding yolk sac membrane”.
For the compound `Nc1ccc2c(c1)OC(=O)C(C1CCC(=O)NC1=O)C2=O` (stereo not shown) [Compound C24], in data set [1], the minimal effective concentration amounted to 50 µg/mL. Further, in data set [2], the minimal effective concentration stood at 50 µg/mL and the “Effect on neutrophil migration” value was “reduced neutrophil migration”. Besides, in data set [3], the “Lowest effective concentration, WT Zebrafish assay” value was determined as 50 µg/mL. In addition, in data set [4], the Damage observed entry is “Necrotic YSM, hemorrhaging” and the “Lowest effective concentration, Chicken assay” value is 100 µg/mL. For the same compound, the “Defects in chicken embryo development” value in data set [4] (setting [5]) was “abnormal blood vessels and necrotic-like regions in the surrounding yolk sac membrane; also recorded: hemorrhaging and necrotic-like damage in the YSM; also recorded: twisted spinal cords, necrotic-like damage in the YSM and high death rates”.
For `Nc1cccc2c1CN(C1CCC(=O)NC1=O)C2=S` (stereo not shown) [Compound C29], the results for the minimal effective concentration in data set [1] and in data set [2] were 10 µg/mL and 5 µg/mL, respectively. In data set [2], the “Effect on neutrophil migration” value was “reduced neutrophil migration”. For the same compound, in data set [4], the Damage observed entry is given as “Twisted spines, hemorrhaging”. In addition, the “Lowest effective concentration, Chicken assay” value in data set [4] came to 100 µg/mL. The “Defects in chicken embryo development” value in data set [4] (setting [5]) was “hemorrhaging and necrotic-like damage in the YSM”; in data set [4] (in vivo) it was “twisted spinal cords, necrotic-like damage in the YSM and high death rates”.
With `O=C1CCC(N2C(=O)c3ccncc3C2=O)C(=O)N1` (stereo not shown) [Compound C58, 5-Aza-thalidomide], in data set [1], the minimal effective concentration came to 10 µg/mL and the “Anti-angiogenic activity (loss of ISVs or inhibition of ISV outgrowth)” value is “without anti-angiogenic activities”. Also, in data set [2], the minimal effective concentration was 5 µg/mL and the “Effect on neutrophil migration” value is listed as “reduced neutrophil migration”. Further, the “Migration of neutrophils relative to control” value in data set [2] (fin clipped embryos, Figure 3) is on record as 10 % of the control. In data set [3], the “Lowest effective concentration, WT Zebrafish assay” value was 5 µg/mL. Besides, in data set [4], the “Lowest effective concentration, Chicken assay” value is 100 µg/mL and the “Teratogenicity in these assays” value is “non-teratogenic”. In addition, the “Defects in chicken embryo development” value in data set [4] (setting [5]) was “no effect”.
Take `O=C1c2ccccc2C(=O)N1c1nc2ccc(C(F)(F)F)cc2s1` [Compound C59]: in data set [1], the minimal effective concentration came to 10 µg/mL and the “Anti-angiogenic activity (loss of ISVs or inhibition of ISV outgrowth)” value was “without anti-angiogenic activities”. Besides, in data set [2], the minimal effective concentration turned out to be 100 µg/mL and the “Effect on neutrophil migration” value is on record as “reduced neutrophil migration”. Besides, in data set [3], the “Lowest effective concentration, WT Zebrafish assay” value is 100 µg/mL. The “Defects in chicken embryo development” value in data set [4] (setting [5]) was “no effect”. In addition, the “Teratogenicity in these assays” value in data set [4] is “non-teratogenic”.
In the case of `CC(N1Cc2c(N)cccc2C1=O)C12CC3CC(CC(C3)C1)C2` (stereo not shown) [Compound C81], in data set [1], the “Anti-angiogenic activity (loss of ISVs or inhibition of ISV outgrowth)” value is recorded as “anti-angiogenic activity” and the “Lowest effective anti-angiogenic concentration, fli1:EGFP assay (molar)” value stood at 161.07 µM. The minimal effective concentration in data set [2] was found to be 50 µg/mL. Further, in data set [3], the “Pectoral fin development / fin length” value is “reductions” and the “Lowest effective concentration, WT Zebrafish assay” value was 10 µg/mL. Further, in data set [4], the Damage observed entry was “Hemorrhaging, microopthalmia,” and the “Lowest effective concentration, Chicken assay” value was found to be 100 µg/mL. In data set [4] (setting [5]), the “Defects in chicken embryo development” value is “microphthalmia; also recorded: growth reduction and hemorrhaging throughout head”.
For the compound `O=C1c2ccccc2CN1C12CC3CC(CC(O)(C3)C1)C2` [Compound C86], in data set [1], the minimal effective concentration stood at 10 µg/mL and the “Anti-angiogenic activity (loss of ISVs or inhibition of ISV outgrowth)” value is reported as “without anti-angiogenic activities”. Besides, in data set [2], the minimal effective concentration turned out to be 100 µg/mL and the “Effect on neutrophil migration” value is on record as “reduced neutrophil migration”. In data set [4], the “Lowest effective concentration, Chicken assay” value was 100 µg/mL and the “Teratogenicity in these assays” value is recorded as “non-teratogenic”. For the same compound, the “Defects in chicken embryo development” value in data set [4] (setting [5]) is “no effect”.

What is called minimal effective concentration is the smallest amount tested that counted as effective.

For the origin of these results see paper PMC5078090, “In vivo screening and discovery of novel candidate thalidomide analogs in the zebrafish embryo and chicken embryo model systems” (Oncotarget, 2016).
